The source of these data is article PMC4140839 (PLoS ONE, 2014).

T1 sequence (Q8XPM9 30-476 limits assumed): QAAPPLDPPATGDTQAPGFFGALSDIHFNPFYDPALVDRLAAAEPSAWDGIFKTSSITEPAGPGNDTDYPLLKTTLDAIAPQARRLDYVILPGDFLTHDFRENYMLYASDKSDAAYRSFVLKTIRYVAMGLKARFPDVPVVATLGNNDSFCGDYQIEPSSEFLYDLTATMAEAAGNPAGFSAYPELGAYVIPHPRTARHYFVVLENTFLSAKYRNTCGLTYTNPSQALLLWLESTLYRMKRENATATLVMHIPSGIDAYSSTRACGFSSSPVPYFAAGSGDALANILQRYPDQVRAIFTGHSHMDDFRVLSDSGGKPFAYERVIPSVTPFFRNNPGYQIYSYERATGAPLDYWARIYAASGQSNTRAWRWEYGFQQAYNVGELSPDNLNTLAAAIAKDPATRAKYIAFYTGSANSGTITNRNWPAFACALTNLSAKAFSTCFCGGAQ

This assay has as its target T1, RsASML (Ralstonia pseudosolanacearum, UniProt Q8XPM9).
T1 construct: gene RSp1609
In words: biochemical.
`Nc1nc2c(ncn2[C@@H]2O[C@H](COP(=O)(O)OP(=O)(O)OP(=O)(O)O)[C@@H](O)[C@H]2O)c(=O)[nH]1` [GTP]: the midpoint of inhibition, the IC50, lay at 44.2 µM. Molecule `Nc1ccn([C@@H]2O[C@H](COP(=O)(O)OP(=O)(O)OP(=O)(O)O)[C@@H](O)[C@H]2O)c(=O)n1` [CTP] had an IC50 of 1500 µM.

`C[N+](C)(C)CCOP(=O)([O-])OC[C@H](O)CO` [L-α-glycerolphosphocholine]: the IC50 came to 64.6 µM.

For the molecule `O=P(O)(O)OC[C@H](O)CO` [L-α-glycerolphosphate], the IC50 is 746 µM. Molecule `Cc1cn([C@H]2C[C@H](O)[C@@H](COP(=O)(O)OP(=O)(O)OP(=O)(O)O)O2)c(=O)[nH]c1=O` [TTP] had an IC50 of 201 µM. This IC50 lies about 3.7-fold lower than the previous one. As to `Nc1ncnc2c1ncn2[C@@H]1O[C@H](CO)[C@@H](O)[C@H]1O` [Adenosine], half-maximal inhibition (IC50) was put at 243 µM. The molecule `C[N+](C)(C)CCOP(=O)([O-])O` [Phosphocholine] yielded a 50% inhibitory concentration (IC50) of 4430 µM. On to `Nc1ncnc2c1ncn2[C@@H]1O[C@H](COP(=O)(O)OP(=O)(O)OP(=O)(O)O)[C@@H](O)[C@H]1O` [ATP], for which the midpoint of inhibition, the IC50, lay at 0.0586 µM.

`O=c1ccn([C@@H]2O[C@H](COP(=O)(O)OP(=O)(O)OP(=O)(O)O)[C@@H](O)[C@H]2O)c(=O)[nH]1` [UTP] came in with an IC50 of 1360 µM. This IC50 lies about 23000-fold higher than the previous one. To `NC(=O)C1=CN([C@@H]2O[C@H](COP(=O)(O)OP(=O)(O)OC[C@H]3O[C@@H](n4cnc5c(N)ncnc54)[C@H](OP(=O)(O)O)[C@@H]3O)[C@@H](O)[C@H]2O)C=CC1` [β-NADPH] belongs 52.1 µM; to `Cc1cn([C@H]2C[C@H](O)[C@@H](COP(=O)(O)O)O2)c(=O)[nH]c1=O` [TMP], 35.9 µM; to `NC(=O)c1ccc[n+]([C@@H]2O[C@H](COP(=O)(O)OP(=O)(O)OC[C@H]3O[C@@H](n4cnc5c(N)ncnc54)[C@H](O)[C@@H]3O)[C@@H](O)[C@H]2O)c1` [NAD^+], 0.0663 µM. The molecule `O=P(O)(O)O` [Phosphate] showed an IC50 of 265 µM. Next, `Nc1ncnc2c1ncn2[C@@H]1O[C@H](COP(=O)(O)O)[C@@H](O)[C@H]1O` [AMP]: 0.075 µM. Next, `Nc1ncnc2c1ncn2[C@@H]1O[C@H](COP(=O)(O)OP(=O)(O)O)[C@@H](O)[C@H]1O` [ADP]: 0.0705 µM.
